Laboratory results reported in patent US9657351B2, “MRNA-based gene expression for personalizing patient cancer therapy with an MDM2 antagonist” (Hoffmann-La Roche Inc., priority 2013, dated 2017).

Assays:
Test in all cases: COMPOUND A In Vitro Assay
Assay type in all cases: cell-based
KYSE-150 = settings: Homo sapiens, Esophagus, TP53 Mutant
In short: (§1)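 The human cancer cell lines, spanning many tumour origins, were characterised by exome and RNA sequencing at baseline and then screened against the MDM2 antagonist COMPOUND A. Response is expressed as IC50.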

NCI-H23 = settings: Homo sapiens, Lung, TP53 NA
In short: as §1

NCI-H1993 = settings: Homo sapiens, Lung, TP53 Mutant
In short: as §1

TF-1a = settings: Homo sapiens, Bone marrow, TP53 Mutant
In short: as §1

NCI-H716 = settings: Homo sapiens, Intestine, large, caecum, TP53 Mutant
In short: as §1

HT-1197 = settings: Homo sapiens
In short: as §1

SK-MEL-30 = settings: Homo sapiens, Skin, TP53 Mutant
In short: as §1

U-2197 = settings: Homo sapiens, Skin, hypodermis, subcutaneous, TP53 Mutant
In short: as §1

Calu-3 = settings: Homo sapiens, Lung, TP53 Mutant
In short: as §1

HuH-28 = settings: Homo sapiens, Gall bladder, TP53 Mutant
In short: as §1

NCI-H1048 = settings: Homo sapiens, Lung, TP53 Mutant
In short: as §1

Huh-7 = settings: Homo sapiens, Liver, TP53 Mutant
In short: as §1

A-673 = settings: Homo sapiens, A673, Muscle, TP53 Mutant
In short: as §1

NCI-H2228 = settings: Homo sapiens, Lung, TP53 Mutant
In short: as §1

KMS-20 = settings: Homo sapiens, Lymphocyte, TP53 Mutant
In short: as §1

HPAF-II = settings: Homo sapiens, Pancreas, TP53 Mutant
In short: as §1

HT-1080 = settings: Homo sapiens
In short: as §1

NCI-H1437 = settings: Homo sapiens, Lung, TP53 Mutant
In short: as §1

MFM-223 = settings: Homo sapiens, Breast, mammary gland, TP53 Mutant
In short: as §1

DLD-1 = settings: Homo sapiens, Intestine, large, colon, TP53 Mutant
In short: as §1

U-138 MG = settings: Homo sapiens, U138-MG, Brain, TP53 Mutant
In short: as §1

NCI-H146 = settings: Homo sapiens, Lung, TP53 Mutant
In short: as §1

TCCSUP = settings: Homo sapiens, TCC-SUP, Urinary, bladder, TP53 Mutant
In short: as §1

NCI-H522 = settings: Homo sapiens, Lung, TP53 Mutant
In short: as §1

NCI-H526 = settings: Homo sapiens, Lung, TP53 Mutant
In short: as §1

U-937 = settings: Homo sapiens, Pleura, TP53 Mutant
In short: as §1

NCI-H929 = settings: Homo sapiens, Lymphocyte B, bone marrow, TP53 Wild type
In short: as §1

SKM-1 = settings: Homo sapiens, Lymphocyte, peripheral blood, TP53 Mutant
In short: as §1

THP-1 = settings: Homo sapiens, Blood, TP53 Mutant
In short: as §1

A-431 = settings: Homo sapiens, Skin, epidermis, TP53 Mutant
In short: as §1

NCI-H28 = settings: Homo sapiens
In short: as §1

NCI-H69 = settings: Homo sapiens, Lung, TP53 Mutant
In short: as §1

Y79 = settings: Homo sapiens
In short: as §1

SK-HEP-1 = settings: Homo sapiens
In short: as §1

HCT116 = settings: Homo sapiens, HCT-116, Intestine, large, colon, TP53 Wild type
In short: as §1

Q: Which results are given for `CCOc1cc(C(C)(C)C)ccc1C1=N[C@@](C)(c2ccc(Cl)cc2)[C@@](C)(c2ccc(Cl)cc2)N1C(=O)N1CCN(CCCS(C)(=O)=O)CC1` [COMPOUND A]?
A: IC50 (KYSE-150): 3 µM; IC50 (NCI-H23): 10 µM; IC50 (NCI-H1993): 7.7 µM; IC50 (TF-1a): 10 µM; IC50 (NCI-H716): 13 µM; IC50 (HT-1197; HT1197, HT-1197, Urinary, bladder, TP53 Wild type): 0.19 µM; IC50 (HT-1197; HT1197, HT-1197 cells): 0.2 µM; IC50 (SK-MEL-30): 19 µM; IC50 (U-2197): 22 µM; IC50 (Calu-3): 11 µM; IC50 (HuH-28): 15 µM; IC50 (NCI-H1048): 9.4 µM; IC50 (Huh-7): 10 µM; IC50 (A-673): 18 µM; IC50 (NCI-H2228): 9.8 µM; IC50 (KMS-20): 13 µM; IC50 (HPAF-II): 10 µM; IC50 (HT-1080; HT-1080, HT-1080, Connective tissue, TP53 Wild type): 0.058 µM; IC50 (HT-1080; HT-1080, HT-1080 cells): 0.1 µM; IC50 (NCI-H1437): 10 µM; IC50 (MFM-223): 17 µM; IC50 (DLD-1): 5.1 µM; IC50 (U-138 MG): 29 µM; IC50 (NCI-H146): 8.3 µM; IC50 (TCCSUP): 16 µM; IC50 (NCI-H522): 22 µM; IC50 (NCI-H526): 16 µM; IC50 (U-937): 5.2 µM; IC50 (NCI-H929): 0.3 µM; IC50 (SKM-1): 19 µM; IC50 (THP-1): 9.7 µM; IC50 (A-431): 9.5 µM; IC50 (NCI-H28; NCI-H28, NCI-H28, Mesothelioma, TP53 Wild type): 0.46 µM; IC50 (NCI-H28; NCI-H28, NCI-H28 cells): 0.5 µM; IC50 (NCI-H69): 15 µM; IC50 (Y79; Y79, Y79, Eye, retina, TP53 Wild type): 0.61 µM; IC50 (Y79; Y79, Y79 cells): 0.6 µM; IC50 (SK-HEP-1; SK-HEP1, SK-HEP-1, Liver, TP53 Wild type): 0.22 µM; IC50 (SK-HEP-1; SK-HEP1, SK-HEP-1 cells): 0.2 µM; IC50 (HCT116): 0.5 µM
